# Reference: patent US20230126310A1 (priority 2020, published 2023)
# Like-named read-outs stand apart in the source and are kept apart here.
# What was measured:
# [1] = test system: CaCo-2 cells; assay: Compound cytotoxicity against CaCo-2 cells at 48 hours; assay type: cell-based, Human; settings: read-out: CC50: concentration of 50% cytotoxicity; Table 5, further results of Examples 1 and 2; mean ± spread
# Method: The cytotoxicity of the profiled compounds towards CaCo-2 cells at 48 hours was assessed. […] After 48 hours, cytotoxicity was evaluated using both digital phase contrast readout as described above and ATP determination (Cell titre-glo, Promega Corp).
# [2] = test system: SARS-CoV-2 (BetaCov/Belgium/GHB-03021/2020); assay: microbe, parasite or virus in culture; assay type: cell-based
# [3] = test system: SARS-CoV-2; settings: for % Inh. (% Inhibition of SARS-CoV-2): 10 µM
# [4] = Table 5, further results of Examples 1 and 2
# [5] = read-out: IC50: concentration of 50% inhibition of virus infection, Table 5, further results of Examples 1 and 2, […]
Compound,CC50 [1],Maximum confluence reached (%) [2],% Inh. (% Inhibition of SARS-CoV-2) [3],"pIC50: -log10 of IC50 [3, 4]","IC50 [3, 5]",pIC50 [3],IC50 [3],pIC50: -log10 of IC50 [3],IC50 ([3]; read-out: IC50: concentration of 50% inhibition of virus infection)
NC(=NC1C2CC3CC(C2)CC1C3)Nc1ccc(I)cc1 (stereo not drawn) [IPAG],11500 ± 9830 nM,81.85%,180.5%,5.22,5960 ± 570 nM,,,,
C/C(=N\NC(=S)N1CCC1)c1ccccn1 [NSC319726],< 20 nM,,104.2%,> 7.70,< 20 nM,8.00,,,
Nc1nccc(-c2c(-c3ccc(F)cc3)ncn2C2CCCCC2)n1 [PF-670462],8240 ± 7870 nM,,111.6%,,,,,,
Cc1cccc2c1CC[C@H](CN1CCC(c3c(Cl)cccc3Cl)CC1)C[C@@H]2O [SB-612111],3670 ± 3210 nM,,146.6%,6.11,770 ± 290 nM,,,,
C[CH2][Hg][S]c1ccccc1C(=O)[O-].[Na+] [THIMEROSAL],13500 ± 1230 nM,,79.4%,,,5.75,1770 nM,5.77,1690 ± 130 nM
"CC(C)(C)c1cc(/C=C(\C#N)C(N)=S)cc(C(C)(C)C)c1O [Tyrphostin AG 879 (AG 879), Tyrphostin AG 879]",1360 ± 80 nM,,104.2%,6.70,200 ± 10 nM,6.70,200 nM,,
CCOC(=O)c1ncc2[nH]c3ccc(OCc4ccccc4)cc3c2c1COC.Cl [ZK-93423],910 ± 130 nM,,75.1%,5.87,1340 ± 920 nM,5.89,1280 nM,,
polidocanol,10300 ± 1620 nM,,85.8%,6.66,220 ± 20 nM,6.68,,,
